# Experimental data from ChEMBL document CHEMBL1201862, “PubChem BioAssay data set” (2004).
#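 Interpolation was linear, between the two tested concentrations surrounding the appropriate level; five concentrations were tested over 48 hours in 96-well plates. Here, GI50 denotes the concentration required for 50% inhibition of growth.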 Activity calls are given as the source filed them. Rule as the data show it: active = GI50 up to about 1.1 µM and inactive = higher.
# How the values were obtained:
# Experiment in all cases: inhibition of tumour cell growth, NCI panel, 48 h
# SF-539 = test system: SF-539
# SK-MEL-2 = test system: SK-MEL-2
# SW-620 = test system: SW-620
# SK-MEL-28 = test system: SK-MEL-28
# A498 = test system: A498
# M14 = test system: M14
# XF498 = test system: XF498
# MOLT-4 = test system: MOLT-4
# A549 = test system: A549
# RXF 631 = test system: RXF 631
# HT-29 = test system: HT-29
# HOP-92 = test system: HOP-92
# DMS-114 = test system: DMS-114
# COLO 205 = test system: COLO 205
# SK-OV-3 = test system: SK-OV-3
# OVCAR-5 = test system: OVCAR-5
# SN12C = test system: SN12C
# KM-20L2 = test system: KM-20L2
# SNB-75 = test system: SNB-75
# ACHN = test system: ACHN
# EKVX = test system: EKVX
# HCC 2998 = test system: HCC 2998
# UO-31 = test system: UO-31
# TK-10 = test system: TK-10
# Malme-3M = test system: Malme-3M
# HCT-116 = test system: HCT-116
# HCT-15 = test system: HCT-15
# RPMI-8226 = test system: RPMI-8226
# NCI-H226 = test system: NCI-H226
# SF-268 = test system: SF-268
# CAKI-1 = test system: CAKI-1
# 786-0 = test system: 786-0
# LXFL 529 = test system: LXFL 529
# SNB-19 = test system: SNB-19
# U-251 = test system: U-251
# SR = test system: SR
# HL-60 = test system: HL-60
# HOP-62 = test system: HOP-62
# CCRF-CEM = test system: CCRF-CEM
# OVCAR-3 = test system: OVCAR-3
# OVCAR-8 = test system: OVCAR-8
# IGROV-1 = test system: IGROV-1
# NCI-H522 = test system: NCI-H522
# UACC-257 = test system: UACC-257
# SF-295 = test system: SF-295
# LOX IMVI = test system: LOX IMVI
# DMS-273 = test system: DMS-273
# UACC-62 = test system: UACC-62
# OVCAR-4 = test system: OVCAR-4
# NCI-H23 = test system: NCI-H23
# NCI-H460 = test system: NCI-H460
# SNB-78 = test system: SNB-78
# SK-MEL-5 = test system: SK-MEL-5
# K562 = test system: K562
# KM12 = test system: KM12
# DLD-1 = test system: DLD-1
# M19-MEL = test system: M19-MEL
# RXF 393 = test system: RXF 393
# HOP-18 = test system: HOP-18
smiles,measurement,setting,value
CN(C)CC[N+]1=Nc2cccc3cccc(c23)N1,GI50,SF-539,72.9 µM (inactive)
same,GI50,SK-MEL-2,> 100 µM (inactive)
same,GI50,SW-620,20.2 µM (inactive)
same,GI50,SK-MEL-28,> 100 µM (inactive)
same,GI50,A498,44.6 µM (inactive)
same,GI50,M14,> 100 µM (inactive)
same,GI50,XF498,> 86.3 µM (inactive)
same,GI50,MOLT-4,21.6 µM (inactive)
same,GI50,A549,44.1 µM (inactive)
same,GI50,RXF 631,44.5 µM (inactive)
same,GI50,HT-29,35.3 µM (inactive)
same,GI50,HOP-92,34.2 µM (inactive)
same,GI50,DMS-114,> 64.3 µM (inactive)
same,GI50,COLO 205,31.2 µM (inactive)
same,GI50,SK-OV-3,> 100 µM (inactive)
same,GI50,OVCAR-5,> 94 µM (inactive)
same,GI50,SN12C,57.9 µM (inactive)
same,GI50,KM-20L2,40.7 µM (inactive)
same,GI50,SNB-75,> 76.6 µM (inactive)
same,GI50,ACHN,28.1 µM (inactive)
same,GI50,EKVX,> 84.7 µM (inactive)
same,GI50,HCC 2998,> 95.7 µM (inactive)
same,GI50,UO-31,13.9 µM (inactive)
same,GI50,TK-10,> 100 µM (inactive)
same,GI50,Malme-3M,> 100 µM (inactive)
same,GI50,HCT-116,3.86 µM (inactive)
same,GI50,HCT-15,62.7 µM
same,GI50,RPMI-8226,35.1 µM (inactive)
same,GI50,NCI-H226,71 µM (inactive)
same,GI50,SF-268,> 89.9 µM (inactive)
same,GI50,CAKI-1,31 µM (inactive)
same,GI50,786-0,55.1 µM (inactive)
same,GI50,LXFL 529,58.1 µM (inactive)
same,GI50,SNB-19,> 49.5 µM (inactive)
same,GI50,U-251,> 68.5 µM (inactive)
same,GI50,SR,19.8 µM (inactive)
same,GI50,HL-60,24.3 µM (inactive)
same,GI50,HOP-62,71 µM (inactive)
same,GI50,CCRF-CEM,27.8 µM (inactive)
same,GI50,OVCAR-3,> 100 µM (inactive)
same,GI50,OVCAR-8,43.6 µM (inactive)
same,GI50,IGROV-1,61.8 µM (inactive)
same,GI50,NCI-H522,33.7 µM (inactive)
same,GI50,UACC-257,> 100 µM (inactive)
same,GI50,SF-295,> 100 µM (inactive)
same,GI50,LOX IMVI,24.1 µM (inactive)
same,GI50,DMS-273,17.7 µM (inactive)
same,GI50,UACC-62,99.8 µM (inactive)
same,GI50,OVCAR-4,49.5 µM (inactive)
same,GI50,NCI-H23,> 77.3 µM (inactive)
same,GI50,NCI-H460,16.9 µM (inactive)
same,GI50,SNB-78,> 100 µM (inactive)
same,GI50,SK-MEL-5,> 52.8 µM (inactive)
same,GI50,K562,26.4 µM (inactive)
same,GI50,KM12,> 100 µM (inactive)
same,GI50,DLD-1,> 44.4 µM (inactive)
same,GI50,M19-MEL,47.1 µM (inactive)
COc1cc(/C=C2\[C@H]3c4c(c(OC)c(C)c(OC)c4OC)C[C@@H](C(=O)N2Cc2ccccc2)N3C(=O)OC(C)C)c(OC)c(C)c1OC,GI50,SF-539,> 100 µM (inactive)
same,GI50,SK-MEL-2,> 100 µM (inactive)
same,GI50,SW-620,54 µM (inactive)
same,GI50,SK-MEL-28,> 100 µM (inactive)
same,GI50,A498,> 100 µM (inactive)
same,GI50,M14,> 100 µM (inactive)
same,GI50,MOLT-4,42.9 µM (inactive)
same,GI50,A549,> 100 µM (inactive)
same,GI50,RXF 631,> 100 µM (inactive)
same,GI50,HT-29,53.2 µM (inactive)
same,GI50,HOP-92,8.34 µM (inactive)
same,GI50,DMS-114,47.5 µM (inactive)
same,GI50,COLO 205,53.7 µM (inactive)
same,GI50,SK-OV-3,2.52 µM (inactive)
same,GI50,OVCAR-5,> 100 µM (inactive)
same,GI50,SN12C,88.7 µM (inactive)
same,GI50,KM-20L2,> 100 µM (inactive)
same,GI50,SNB-75,> 100 µM (inactive)
same,GI50,ACHN,> 100 µM (inactive)
same,GI50,EKVX,52.5 µM (inactive)
same,GI50,HCC 2998,29.6 µM (inactive)
same,GI50,UO-31,66.7 µM (inactive)
same,GI50,TK-10,79.3 µM (inactive)
same,GI50,RXF 393,> 100 µM (inactive)
same,GI50,Malme-3M,60.1 µM (inactive)
same,GI50,HCT-116,58.7 µM (inactive)
same,GI50,HOP-18,> 100 µM (inactive)
same,GI50,RPMI-8226,27.2 µM (inactive)
same,GI50,NCI-H226,6.08 µM (inactive)
same,GI50,SF-268,> 100 µM (inactive)
same,GI50,786-0,> 100 µM (inactive)
same,GI50,LXFL 529,52.1 µM (inactive)
same,GI50,U-251,53.1 µM (inactive)
same,GI50,SR,21.8 µM (inactive)
same,GI50,HL-60,19.8 µM (inactive)
same,GI50,HOP-62,> 100 µM (inactive)
same,GI50,CCRF-CEM,54 µM (inactive)
same,GI50,OVCAR-3,67.3 µM (inactive)
same,GI50,OVCAR-8,> 100 µM (inactive)
same,GI50,IGROV-1,> 100 µM (inactive)
same,GI50,NCI-H522,27.5 µM (inactive)
same,GI50,UACC-257,34 µM (inactive)
same,GI50,SF-295,> 100 µM (inactive)
same,GI50,LOX IMVI,> 100 µM (inactive)
same,GI50,DMS-273,25.9 µM (inactive)
same,GI50,UACC-62,92.9 µM (inactive)
same,GI50,OVCAR-4,69.3 µM (inactive)
same,GI50,NCI-H23,78 µM (inactive)
same,GI50,NCI-H460,5.31 µM (inactive)
same,GI50,SK-MEL-5,48.4 µM (inactive)
same,GI50,K562,40 µM (inactive)
same,GI50,KM12,66.8 µM (inactive)
same,GI50,DLD-1,> 100 µM (inactive)
O=C(O)/C(=C\c1ccccc1Cl)S(=O)(=O)c1ccccc1,GI50,SF-539,> 100 µM (inactive)
same,GI50,SK-MEL-2,> 100 µM (inactive)
same,GI50,SW-620,> 100 µM (inactive)
same,GI50,A498,> 100 µM (inactive)
same,GI50,M14,> 100 µM (inactive)
same,GI50,MOLT-4,> 100 µM (inactive)
same,GI50,A549,> 100 µM (inactive)
same,GI50,RXF 631,> 100 µM (inactive)
same,GI50,HT-29,> 100 µM (inactive)
same,GI50,HOP-92,> 100 µM (inactive)
same,GI50,DMS-114,> 100 µM (inactive)
same,GI50,COLO 205,> 100 µM (inactive)
same,GI50,SK-OV-3,> 100 µM (inactive)
same,GI50,OVCAR-5,> 100 µM (inactive)
same,GI50,SN12C,> 100 µM (inactive)
same,GI50,KM-20L2,> 100 µM (inactive)
same,GI50,SNB-75,> 100 µM (inactive)
same,GI50,ACHN,> 100 µM (inactive)
same,GI50,HCC 2998,> 100 µM (inactive)
same,GI50,UO-31,> 100 µM (inactive)
same,GI50,TK-10,> 100 µM (inactive)
same,GI50,RXF 393,> 100 µM (inactive)
same,GI50,Malme-3M,> 100 µM (inactive)
same,GI50,HCT-116,> 100 µM (inactive)
same,GI50,HCT-15,> 100 µM
same,GI50,HOP-18,> 100 µM (inactive)
same,GI50,RPMI-8226,> 100 µM (inactive)
same,GI50,SF-268,> 100 µM (inactive)
same,GI50,CAKI-1,> 100 µM (inactive)
same,GI50,786-0,> 100 µM (inactive)
same,GI50,LXFL 529,> 100 µM (inactive)
same,GI50,SNB-19,> 100 µM (inactive)
same,GI50,U-251,> 100 µM (inactive)
same,GI50,SR,> 10 µM (inactive)
same,GI50,HL-60,> 100 µM (inactive)
same,GI50,HOP-62,> 100 µM (inactive)
same,GI50,CCRF-CEM,14.5 µM (inactive)
same,GI50,OVCAR-8,> 100 µM (inactive)
same,GI50,IGROV-1,> 100 µM (inactive)
same,GI50,NCI-H522,> 100 µM (inactive)
same,GI50,UACC-257,> 100 µM (inactive)
same,GI50,SF-295,> 100 µM (inactive)
same,GI50,LOX IMVI,> 100 µM (inactive)
same,GI50,DMS-273,> 100 µM (inactive)
same,GI50,UACC-62,> 100 µM (inactive)
same,GI50,OVCAR-4,> 100 µM (inactive)
same,GI50,NCI-H460,> 100 µM (inactive)
same,GI50,SNB-78,> 100 µM (inactive)
same,GI50,SK-MEL-5,> 100 µM (inactive)
same,GI50,K562,> 100 µM (inactive)
same,GI50,KM12,> 100 µM (inactive)
same,GI50,DLD-1,> 100 µM (inactive)
same,GI50,M19-MEL,> 100 µM (inactive)
